Data as given in PMC6066355, “Probing the binding site of novel selective positive allosteric modulators at the M1 muscarinic acetylcholine receptor” (Biochemical Pharmacology, 2018).
Where a chain is given by its changes, count along the chain named. Read-outs that look alike come from different tables or passages of the source.

Experiments:
WT M1 mAChR [1] = molecular target: T1, WT M1 mAChR (Homo sapiens, UniProt P11229); test: Receptor alkylation assay: IP1 accumulation after PBZ pre-treatment, CHO-hM1 cells; format: cell-based; settings: for Effect on maximal ACh response (potency of ACh increased): 10 µM PBZ pre-treatment, ACh a partial agonist; for αβ (functional cooperativity with ACh, antilog in brackets) / Logαβ (logarithm of functional cooperativity between ACh and modulator): alkylated with PBZ (10 µM pre-treatment); for Logαβ (logarithm of functional cooperativity between ACh and modulator): β constrained to 1
T1 construct: expressed in transfected cells
T1 sequence (P11229 1-460): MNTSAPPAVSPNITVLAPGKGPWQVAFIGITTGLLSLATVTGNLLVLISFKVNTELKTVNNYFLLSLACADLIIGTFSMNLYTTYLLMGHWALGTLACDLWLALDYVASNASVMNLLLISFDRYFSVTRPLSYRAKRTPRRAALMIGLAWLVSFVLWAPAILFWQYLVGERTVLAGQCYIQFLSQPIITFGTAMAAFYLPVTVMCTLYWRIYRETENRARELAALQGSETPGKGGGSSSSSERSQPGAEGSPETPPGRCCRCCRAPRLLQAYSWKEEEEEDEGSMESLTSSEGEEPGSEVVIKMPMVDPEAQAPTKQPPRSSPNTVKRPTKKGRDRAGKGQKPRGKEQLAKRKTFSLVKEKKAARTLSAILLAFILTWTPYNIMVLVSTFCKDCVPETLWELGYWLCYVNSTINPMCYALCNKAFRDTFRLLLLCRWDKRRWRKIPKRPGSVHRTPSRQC
Experimental: (§1) The IP-One assay kit (Cisbio) was used for the direct quantitative measurement of myo-Inositol 1 phosphate (IP1). Cells were seeded at 25,000 per well into 96-well transparent cell culture plates and incubated overnight at 37 °C. […] Cells were then lysed with IP1 lysis buffer (50 mM HEPES pH 7.0, 15 mM KF, 1.5% V/V Triton-X-100, 3% V/V FBS, 0.2% W/V BSA), and IP1 levels were measured by incubation of cell lysates with FRET reagents (the cryptate-labeled anti-IP1 antibody and the d2-labeled IP1 analogue) for 1 h at 37 °C. […] Signals were expressed as the FRET ratio: F = (fluorescence665 nm/fluorescence590 nm) × 10^4, and normalized to the response to maximal ACh concentration (100 µM).
Cells were pre-treated with vehicle or the irreversible orthosteric alkylating agent, phenoxybenzamine (PBZ) for 30 min at 37 °C, 5% CO2 to reduce functional receptor availability, followed by three extensive washes with PBS. IP1 accumulation assays were then performed as described above.
(§2) Functional interaction studies between orthosteric agonists and allosteric modulators in IP1 assays were analysed using the following operational model of allosterism and agonism (Eq. (3)):(3) E=Basal+Em-BasalAKB+αβB+τBBEC50/EC50KB+B+AKB+αβB+τBBEC50 where Em is the maximal possible system response, and Basal is the response in the absence of agonist. KB is the equilibrium dissociation constant of allosteric ligand, and EC50 is the concentration of orthosteric agonist required to achieve half maximal response. [A] and [B] denote concentrations of orthosteric and allosteric ligands, respectively. α and β denote allosteric effects on orthosteric ligand binding affinity and efficacy, respectively, and τB denotes the efficacy of allosteric ligand. This model assumes that ACh is a full agonist at the receptor in both the absence/presence of modulator and/or there is no efficacy modulation (i.e., β = 1).

WT M1 mAChR [2] = molecular target: T1, WT M1 mAChR; test: IP-One (IP1) accumulation assay, CHO-hM1 cells; format: cell-based; settings: for αβ (functional cooperativity with ACh, antilog in brackets) / Logαβ (logarithm of functional cooperativity between ACh and modulator): non-alkylated; for Logαβ (logarithm of functional cooperativity between ACh and modulator): pKB constrained to Table 1, β constrained to 1
Experimental: as §1
(Eq. (2)) was used:(2) Y=Basal+Em-Basal/1+KA+A/τA where Em is the maximal possible system response and Basal is the response in the absence of agonist. [A] denotes the concentration of ligand, and KA represents its equilibrium dissociation constants. τ denotes the intrinsic efficacy of the ligand, which incorporates the total receptor density and the efficiency of stimulus-response coupling.
as §2

Y82^2.61A M1 mAChR = molecular target: T2, Y82^2.61A M1 mAChR (Homo sapiens, UniProt P11229, Y82A); test: Whole cell [3H]NMS binding inhibition/interaction assay (ACh ± PAM), FlpIn CHO cells
T2 construct: expressed in transfected cells
T2 sequence (P11229 1-460 Y82A): T1 sequence (P11229 1-460) with Y82A
Experimental: Saturation binding assays were performed to estimate the expression levels and equilibrium dissociation constant of the radioligand (KD). FlpIn CHO cells stably expressing the WT or mutant c-myc hM1 mAChRs were plated at the density of 25,000 per well of 96-well white clear bottom Isoplates (PerkinElmer Life Sciences, Boston, MA), and grown overnight at 37 °C. […] Atropine at the final concentration of 100 µM was used to determine non-specific binding. The assays were terminated by rapid removal of the radioligand, and two washes with 100 µl/well ice-cold 0.9% NaCl buffer.
All data were analysed using GraphPad Prism 7 (San Diego, CA). […] Binding interaction studies between orthosteric agonists and allosteric modulators were fitted to the following allosteric ternary complex model (Eq. (1)):(1) Y=BmaxD/D+KDKB/α^′B+KB1+I/KI+B/KB+αIB/KIKB where Bmax is the total number of receptors, [D], [B] and [I] denote the concentrations of radioligand, allosteric ligand, and orthosteric ligand, respectively, and KD, KB and KI represent their respective equilibrium dissociation constants. α′ and α are the cooperativity factors between the allosteric ligand and radioligand or orthosteric ligand, respectively.

αβ (functional cooperativity with ACh, antilog in brackets) (WT M1 mAChR [1])	Logαβ (logarithm of functional cooperativity between ACh and modulator) (WT M1 mAChR [1])	LogτB (logarithm of functional efficacy of the modulator) (WT M1 mAChR [2])	τB (functional efficacy of the modulator, antilog in brackets) (WT M1 mAChR [2])	αβ (functional cooperativity with ACh, antilog in brackets) (WT M1 mAChR [2])	Logαβ (logarithm of functional cooperativity between ACh and modulator) (WT M1 mAChR [2])	Logα ACh (logarithm of binding cooperativity between ACh and modulator) (Y82^2.61A M1 mAChR; Y82^2.61A)	Logα NMS (logarithm of binding cooperativity between [3H]NMS and modulator) (Y82^2.61A M1 mAChR; Y82^2.61A)	α ACh (binding cooperativity with ACh, antilog in brackets) (Y82^2.61A M1 mAChR; Y82^2.61A)	α NMS (binding cooperativity with [3H]NMS, antilog in brackets) (Y82^2.61A M1 mAChR; Y82^2.61A)	Kb (Y82^2.61A M1 mAChR; Y82^2.61A, allosteric ternary complex model, 0.6 nM [3H]NMS, read-out: pKB (negative logarithm of the allosteric modulator equilibrium dissociation constant) (converted)) [nM]	Compound	Effect on maximal ACh response (potency of ACh increased) (WT M1 mAChR [1])	Kb (Y82^2.61A M1 mAChR) [nM]
144	2.16 ± 0.11	1.01 ± 0.03	10	83	1.92 ± 0.11	1.53 ± 0.11	−0.16 ± 0.02	30.9	0.62	2450	Cc1cnc(C(=O)N[C@H]2CCOC[C@@H]2O)cc1Cc1ccc(-c2cscn2)cc1 [PF-06767832, N-((3R,4S)-3-hydroxytetrahydro-2H-pyran-4-yl)-5-methyl-4-(4-(thiazol-4-yl)benzyl)pyridine-2-carboxamide]	no effect on the maximal agonist response	–
117	2.07 ± 0.13	1.00 ± 0.05	10	59	1.77 ± 0.14	1.66 ± 0.19	−0.16 ± 0.06	45.7	0.69	–	Cn1cc(-c2ccc(COc3ccccc3-c3cc(=O)n(C4CCCCC4O)cn3)cc2)cn1 (stereo not drawn) [MIPS1780, 3-(2-hydroxycyclohexyl)-6-(2-((4-(1-methyl-1H-pyrazol-4-yl)-benzyl)oxy)phenyl)pyrimidin-4(3H)-one]	no effect on the maximal agonist response	10000

Compound	αβ (functional cooperativity with ACh, antilog in brackets) (WT M1 mAChR [1])	Logαβ (logarithm of functional cooperativity between ACh and modulator) (WT M1 mAChR [1])	LogτB (logarithm of functional efficacy of the modulator) (WT M1 mAChR [2])	τB (functional efficacy of the modulator, antilog in brackets) (WT M1 mAChR [2])	αβ (functional cooperativity with ACh, antilog in brackets) (WT M1 mAChR [2])	Logαβ (logarithm of functional cooperativity between ACh and modulator) (WT M1 mAChR [2])	Logα ACh (logarithm of binding cooperativity between ACh and modulator) (Y82^2.61A M1 mAChR; Y82^2.61A)	Logα NMS (logarithm of binding cooperativity between [3H]NMS and modulator) (Y82^2.61A M1 mAChR; Y82^2.61A)	α ACh (binding cooperativity with ACh, antilog in brackets) (Y82^2.61A M1 mAChR; Y82^2.61A)	α NMS (binding cooperativity with [3H]NMS, antilog in brackets) (Y82^2.61A M1 mAChR; Y82^2.61A)	Kb (Y82^2.61A M1 mAChR; Y82^2.61A, allosteric ternary complex model, 0.6 nM [3H]NMS, read-out: pKB (negative logarithm of the allosteric modulator equilibrium dissociation constant) (converted)) [nM]	Effect on maximal ACh response (potency of ACh increased) (WT M1 mAChR [1])	Kb (Y82^2.61A M1 mAChR) [nM]
Cn1cc(-c2ccc(Cn3cc(C(=O)N[C@H]4CCCC[C@@H]4O)c4c(F)cc(F)cc43)cn2)cn1 [VU6004256, 4,6-difluoro-N-(1S,2S)-2-hydroxycyclohexyl-1-((6-(1-methyl-1H-pyrazol-4-yl)pyridine-3-yl)methyl)-1H-indole-3-carboxamide]	91	1.96 ± 0.22	1.24 ± 0.05	17	60	1.78 ± 0.18	1.08 ± 0.13	−0.09 ± 0.03	11.2	0.76	–	no effect on the maximal agonist response	2240
